Experimental data reported in publication PMC2610488 (Journal of medicinal chemistry, 2008).
pIC50, pKi: −log10 of the molar value.

Key:
[1] = target: HisG; conditions: competitive inhibitor for both substrates; cited from earlier work
[2] = target: M. tuberculosis HisG (ATP-PRTase) (Mycobacterium tuberculosis, UniProt P9WMN1); format: biochemical; conditions: read-out: inhibition of enzyme activity
[3] = tested on: M. smegmatis; test: Whole-cell assay, growth inhibition on agar plates; format: cell-based; conditions: 12 μg/ml, 4 days
[4] = tested on: E. coli HisG; conditions: E. coli enzyme; cited from earlier work
[5] = tested on: Arabidopsis thaliana HisG; conditions: cited from earlier work

M. tuberculosis HisG (ATP-PRTase), sequence (P9WMN1 whole entry): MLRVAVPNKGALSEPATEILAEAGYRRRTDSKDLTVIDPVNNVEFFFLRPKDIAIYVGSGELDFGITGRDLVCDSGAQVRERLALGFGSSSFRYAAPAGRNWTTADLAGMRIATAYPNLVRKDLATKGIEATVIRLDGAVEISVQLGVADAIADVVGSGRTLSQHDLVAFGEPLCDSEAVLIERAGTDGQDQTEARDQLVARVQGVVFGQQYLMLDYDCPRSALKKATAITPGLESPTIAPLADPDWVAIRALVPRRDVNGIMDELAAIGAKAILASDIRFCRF

Nc1ncnc2c1ncn2[C@@H]1O[C@H](COP(=O)(O)O)[C@@H](O)[C@H]1O [AMP, adenosine monophosphate]
pKi [1]: 3.26

O=C(CSc1nnc(-c2ccccc2)c(-c2ccccc2)n1)Cc1nccs1 [Compound 4]
inhibition at 10 µM [2]: > 50%

O=C(CC(NC(=O)c1ccccc1)c1ccccc1)Nc1nc2ccc([N+](=O)[O-])cc2s1 (stereo not shown) [Compound 6]
inhibition at 10 µM [2]: > 50%

COc1ccc(COC(=O)C2=C(C)NC3=C(C(=O)CC(c4cccs4)C3)C2c2cccs2)cc1 (stereo not shown) [Compound 10]
inhibition at 10 µM [2]: > 50%

O=[N+]([O-])c1ccc(Nc2cc(Nc3cccc(O)c3)c3nonc3c2[N+](=O)[O-])c(O)c1 [Compound 18]
growth inhibition [3]: significant growth inhibition

O=c1oc2ccccc2c(O)c1Cc1c(O)c2ccccc2oc1=O [dicoumarol]
pKi [4]: 4.22

di-(amino-naphthyl)-disulfide
pIC50 [5]: 7.30
